Key:
[1] = target: T1, mouse CDH11 (EC1-2 domain) (Mus musculus, UniProt P55288); assay: SPR competition of homophilic CDH11 binding, Biacore T200 CM5; settings: 6.25-200 uM compound co-injected with 2.5 uM EC1-2; pH 7.4 HEPES, 150 mM NaCl, 3 mM CaCl2, 1% DMSO; inhibits homodimerization, W-binding pocket (modelled); salt form ambiguous (b61 vs Table 1)
T1 construct: extracellular domains EC1-EC2 only; wild-type soluble EC1-2, and C-terminally cysteine-tagged EC1-2 immobilised on the SPR chip; forms homodimer
T1 sequence (P55288 54-268 limits assumed): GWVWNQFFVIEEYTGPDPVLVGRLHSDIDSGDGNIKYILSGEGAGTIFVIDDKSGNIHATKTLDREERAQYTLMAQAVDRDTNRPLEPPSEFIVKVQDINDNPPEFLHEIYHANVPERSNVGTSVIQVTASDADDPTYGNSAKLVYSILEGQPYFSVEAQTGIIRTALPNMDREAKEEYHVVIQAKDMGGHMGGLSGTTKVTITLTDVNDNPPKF

[2] = target: T1, mouse CDH11 (EC1-2 domain); assay: native gel, dimer fraction; type: binding; settings: 1:1 molar ratio with purified CDH11 EC1-2, compound in DMSO; inhibits homodimerization; species of the gel protein not stated again
[3] = target: wild type mouse cadherin-11 (CDH11) EC1-2 (mouse); assay: native gel or EMSA; purified CDH11 EC1-2 without and with celecoxib (in DMSO, 1:1 molar ratio); monomer and dimer fractions

## Oc1ccc(-c2cccnc2-c2ccccc2)cc1 [Sd-133, 4-(2-phenyl-3-pyridyl)phenol]
[1]
  SPR competition of homophilic CDH11 binding, Biacore T200 CM5: Sd-133 competed with CDH11 (ligand) in binding to immobilized CDH11 protein

## Cc1ccc(-c2cc(C(F)(F)F)nn2-c2ccc(S(N)(=O)=O)cc2)cc1 [celecoxib, 4-[5-(4-methylphenyl)-3-(trifluoromethyl)pyrazol-1-yl]benzenesulfonamide]
[2]
  native gel, dimer fraction: Note that celecoxib reduces the dimer fraction

## wild type mouse cadherin-11 (CDH11) EC1-2 (domain or fragment)
[3]
  stoichiometry N: 2
